± gives the expanded uncertainty stated by the source.
Assay: refractive index (Na D-line) (dimensionless); xn = mol fraction of the nth substance listed
Details: 101 kPa, Liquid, Standard Abbe refractometry

NCCNCCO [N-(2-aminoethyl)ethanolamine] + O
refractive index
Details	298.15 K	303.15 K	313.15 K	323.15 K	333.15 K
x1 = 0.05	1.37012 ± 0.00044	1.36931 ± 0.00045	1.36749 ± 0.00046	1.36542 ± 0.00046	1.36367 ± 0.00052
x1 = 0.07	1.38204 ± 0.00039	1.3811 ± 0.00043	1.37909 ± 0.00043	1.37696 ± 0.00043	1.37507 ± 0.00045
x1 = 0.1	1.39796 ± 0.00044	1.39682 ± 0.00039	1.39453 ± 0.00042	1.39214 ± 0.00042	1.38992 ± 0.00057
x1 = 0.2	1.43314 ± 0.00085	1.4318 ± 0.00037	1.4289 ± 0.00045	1.42583 ± 0.00046	1.42264 ± 0.00087
x1 = 0.3	1.45253 ± 0.00041	1.45087 ± 0.00042	1.44762 ± 0.00047	1.44425 ± 0.00047	1.44087 ± 0.00069
x1 = 0.4	1.46321 ± 0.00034	1.46158 ± 0.00045	1.45811 ± 0.00048	1.45463 ± 0.00048	1.45107 ± 0.00058
x1 = 0.5	1.4703 ± 0.00038	1.46857 ± 0.00047	1.46502 ± 0.00049	1.46146 ± 0.00049	1.45777 ± 0.00055
x1 = 0.5996	1.47498 ± 0.00043	1.47321 ± 0.00049	1.46961 ± 0.00049	1.46604 ± 0.0005	1.46223 ± 0.00054
x1 = 0.7011	1.47851 ± 0.00046	1.47671 ± 0.00049	1.47308 ± 0.0005	1.46938 ± 0.00051	1.4656 ± 0.00053
x1 = 0.8002	1.48101 ± 0.00048	1.47918 ± 0.0005	1.47552 ± 0.00051	1.47177 ± 0.00051	1.46805 ± 0.00053
x1 = 0.8979	1.48289 ± 0.0005	1.48103 ± 0.00051	1.47734 ± 0.00052	1.47359 ± 0.00052	1.46977 ± 0.00053
x1 = 1	1.48454 ± 0.00052	1.48269 ± 0.00053	1.47884 ± 0.00053	1.47516 ± 0.00053	1.47128 ± 0.00054

Reference: the NIST ThermoML archive (doi:10.1021/je060032n)
